Experimental findings from patent publication US7288541B2, “Propylcarbamate derivatives as inhibitors of serine and cysteine proteases” (SmithKline Beecham Corporation, priority 2001, dated 2007) are described below.

Common to all, as to format: biochemical
For assay [1], the target named is T1, human cathepsin K (Homo sapiens, UniProt P43235).
T1 construct: The proform of cathepsin K was converted to mature cathepsin K by brief exposure to pH 4; made in house; host or cells: baculovirus; Trichoplusia ni High Five cells (virus raised in Sf-9)
T1 sequence (P43235 115-329): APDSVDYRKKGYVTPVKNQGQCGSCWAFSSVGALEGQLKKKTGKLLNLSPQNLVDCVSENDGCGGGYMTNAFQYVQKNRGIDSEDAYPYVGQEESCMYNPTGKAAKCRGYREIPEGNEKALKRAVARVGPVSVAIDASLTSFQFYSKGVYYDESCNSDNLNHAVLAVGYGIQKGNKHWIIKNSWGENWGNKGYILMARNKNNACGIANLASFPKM
In words: Cathepsin K inhibition, fluorogenic substrate Cbz-Phe-Arg-AMC, progress curve method. Conditions: recombinant human enzyme, 10 μM substrate, read-out: hCat K IC50. Here is the method: All assays for cathepsin K were carried out with human and rat recombinant enzyme. Assays for cathepsins S & V were also carried out with human recombinant enzyme. Assays for human cathepsins B, H, and L were carried out with enzyme prepared from human liver tissue. […] A stock substrate solution of Cbz-Phe-Arg-AMC was prepared at a concentration of 50 mM in dimethyl sulfoxide. This substrate was diluted into the assay for a final substrate concentration of 10 μM in the rat cathepsin K, human cathepsin K, and human cathepsin B assays; a final substrate concentration of 5 μM in the human cathepsin L assay; and a final substrate concentration of 2 μM in the human cathepsin V assay.
All assays contained 10% dimethyl sulfoxide. […] All assays were conducted at 30° C. Product fluorescence (excitation at 360 nm; emission at 440 nm, (except cathepsin H which used excitation at 340 nm; emission at 420 nm)) was monitored with a PerSeptive Biosystems Cytofluor II fluorescence plate reader. Product progress curves were generated over 2.3 h monitoring the formation of 7-amino-4-methylcoumarin product (or β-naphthalamide for cathepsin H).
Human and Rat Cathepsin K:
The cells continued to grow for 72 h post-infection, before the virus was harvested by centrifugation at 1400×g for 30 min.
One and one-half liters of Trichoplusia ni (T. ni) High Five (TM) cells [JRH Biosciences, Woodland, Calif. […] The cells were grown for 24 h at 28° C., 50 RPM, and 50% dissolved oxygen. […] Media were separated from cells at a rate of 1 L/min using the Centritech 100 (TM) continuous-flow centrifuge (DuPont) operating at 200×g.
Protein Purification: Media (human and rat) were filtered through a Whatman 3 filter, and then loaded onto a 25 mL Poros HS II (26 mm×47 mm) cation exchange column equilibrated in 25 mM sodium acetate at pH 5.5 (equilibration buffer). The column was washed until the absorbance reached the baseline value, and then the protein was eluted with a linear gradient from 0–2 M sodium chloride in the equilibration buffer. Column fractions were analyzed by SDS-PAGE, N-terminal sequencing, and mass spectrometry. Fractions containing the proform of cathepsin K were pooled and frozen at −80° C. The proform was concentrated in an Amicon Centriprep 10 and fractionated with a Superdex 75 column (26 mm×600 mm, Pharmacia) equilibrated in 400 mM sodium chloride, 25 mM sodium acetate at pH 5.5.
Cathepsin K Activation: The proform of cathepsin K was converted to mature cathepsin K by brief exposure to pH 4 in the presence of 5 mM L-cysteine. Typically, 5 mM L-cysteine was added to 10 mL of approximately 1 mg/mL procathepsin K. One mL of this solution was diluted ten-fold into 450 mM sodium acetate at pH 4.0 containing 5 mM L-cysteine. This solution was reacted at 23° C. for 2 min before neutralization with 2 mL 1.8 M sodium acetate at pH 6.0. The neutralized sample was added to the remaining 9 mL of procathepsin K. The mixture was incubated at 4° C. for 2–3 days. The activated cathepsin K was chromatographed on a Poros HS II column as described above.
Potential inhibitors were evaluated using the progress curve method. Assays were carried out in the presence of variable concentrations of test compound. Reactions were initiated by addition of buffered solutions of inhibitor and substrate to enzyme. Data analysis was conducted according to one of two procedures depending on the appearance of the progress curves in the presence of inhibitors. […] Ki values were calculated from IC50 values using equation 2 assuming a competitive model.

The target in assay [2] is T2, human cathepsin B (Homo sapiens, UniProt P07858).
T2 construct: enzyme prepared from human liver tissue; from tissue; host or cells: human liver
In words: Cathepsin B inhibition, fluorogenic substrate Cbz-Phe-Arg-AMC, progress curve method. The note with it: Table 2, Inhibition of Cathepsins (Ki in nM); enzyme from human liver tissue, 10 μM substrate, pH 5.5; read-out: hCat B IC50. Here is the method:
(§1) All assays for cathepsin K were carried out with human and rat recombinant enzyme. Assays for cathepsins S & V were also carried out with human recombinant enzyme. Assays for human cathepsins B, H, and L were carried out with enzyme prepared from human liver tissue. Standard assay conditions for the determination of kinetic constants used a fluorogenic peptide substrate, typically (5S,8S)-13-amino-5-benzyl-13-imino-3-methylene-N-(4-methyl-2-oxo-2H-chromen-7-yl)-6-oxo-1-phenyl-2-oxa-4,7,12-triazatridecane-8-carboxamide (Cbz-Phe-Arg-AMC), and were determined in 100 mM sodium acetate at pH 5.5 containing 10 mM dithiothreitol and 120 mM sodium chloride. […]
(§2) All assays contained 10% dimethyl sulfoxide. […] Product fluorescence (excitation at 360 nm; emission at 440 nm, (except cathepsin H which used excitation at 340 nm; emission at 420 nm)) was monitored with a PerSeptive Biosystems Cytofluor II fluorescence plate reader. […]
(§3) Potential inhibitors were evaluated using the progress curve method. […] For those compounds whose progress curves were linear, the enzymatic activity (RATE) was plotted against the concentration of test compound, including inhibitor concentration of zero ([I]=0), and the IC50 determined from a fit of equation 1 to the data, RATE=Vmax/(1+([I]/IC50)) (1) where Vmax is the best fit estimate of the maximal enzymatic activity. […]

Assay [3] deals with T3, human cathepsin L (Homo sapiens, UniProt P07711).
T3 construct: enzyme prepared from human liver tissue; from tissue; host or cells: human liver
In words: Cathepsin L inhibition, fluorogenic substrate Cbz-Phe-Arg-AMC, progress curve method. The note with it: Table 2, Inhibition of Cathepsins (Ki in nM); enzyme from human liver tissue, 5 μM substrate, pH 5.5; read-out: hCat L IC50. The procedure:
as §1, §2, §3

The target in assay [4] is human cathepsin S (Homo sapiens, UniProt P25774). In words: Cathepsin S inhibition, fluorogenic substrate Cbz-Val-Val-Arg-AMC, progress curve method. The note with it: Table 2, Inhibition of Cathepsins (Ki in nM); recombinant human enzyme, 10 μM substrate, pH 5.5; read-out: hCat S IC50. The procedure: as §1, §2, §3
The target in assay [5] is human cathepsin V (Homo sapiens, UniProt O60911). In words: Cathepsin V inhibition, fluorogenic substrate Cbz-Phe-Arg-AMC, progress curve method. Conditions: Table 2, Inhibition of Cathepsins (Ki in nM); recombinant human enzyme, 2 μM substrate, pH 5.5; read-out: hCat V IC50. Here is the method: as §1, §2, §3
Where [6] appears, read: Table 1, Inhibition of Cathepsin K (Ki in nM), pH 5.5, 30° C.
[7] abbreviates: Table 2, Inhibition of Cathepsins (Ki in nM), pH 5.5.

As a reminder, the IC50 is the point on the concentration scale where inhibition reaches its midpoint.

Read-outs that look alike come from different tables or passages of the source.

T3 sequence (P07711 114-288 limits assumed): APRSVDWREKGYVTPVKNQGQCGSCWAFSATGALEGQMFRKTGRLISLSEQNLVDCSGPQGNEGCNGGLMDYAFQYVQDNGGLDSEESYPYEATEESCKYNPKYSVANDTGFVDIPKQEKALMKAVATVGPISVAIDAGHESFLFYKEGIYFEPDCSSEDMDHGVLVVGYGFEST
T3 sequence (P07711 292-333 limits assumed): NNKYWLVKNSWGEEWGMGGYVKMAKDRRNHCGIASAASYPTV
human cathepsin S, sequence (P25774 115-331): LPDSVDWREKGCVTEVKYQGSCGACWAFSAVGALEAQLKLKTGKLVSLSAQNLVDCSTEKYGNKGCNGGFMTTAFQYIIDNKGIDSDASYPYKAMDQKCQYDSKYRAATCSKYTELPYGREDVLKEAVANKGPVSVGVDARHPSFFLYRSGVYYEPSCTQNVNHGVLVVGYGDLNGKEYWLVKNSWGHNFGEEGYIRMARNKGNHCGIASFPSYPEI
human cathepsin V, sequence (O60911 114-334): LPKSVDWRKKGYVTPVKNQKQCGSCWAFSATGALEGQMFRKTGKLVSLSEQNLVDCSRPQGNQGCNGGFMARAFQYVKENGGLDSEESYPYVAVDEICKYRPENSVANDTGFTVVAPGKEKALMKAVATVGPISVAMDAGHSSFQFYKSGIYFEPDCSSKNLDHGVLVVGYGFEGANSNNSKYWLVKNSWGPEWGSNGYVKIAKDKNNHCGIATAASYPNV

As for `CCCC[C@H](NC(=O)O[C@@H]1CN(c2nc3ccccc3s2)CC1(C)C)C(=O)CNS(=O)(=O)c1ccccn1` [Example 6, (3S)-1-(1,3-benzothiazol-2-yl)-4,4-dimethylpyrrolidinyl (1S)-1-{[(2-pyridinylsulfonyl)amino]acetyl}pentylcarbamate], the IC50 is 100 to 1000 nM in assay [1] (setting [6]); 100 to 1000 nM in assay [1] (setting [7]); 1000 to 10000 nM in assay [2]; 1000 to 10000 nM in assay [3]; 10 to 100 nM in assay [4]; 100 to 1000 nM in assay [5].
On to `C[C@H](NC(=O)O[C@H](Cn1cnc2cc(Cl)c(Cl)cc21)C(C)(C)C)C(=O)CNS(=O)(=O)c1ccccn1` [Example 16, (1S)-1-[(5,6-dichloro-1H-benzimidazol-1-yl)methyl]-2,2-dimethylpropyl (1S)-1-methyl-2-oxo-3-[(2-pyridinylsulfonyl)amino]propylcarbamate], for which the IC50 is less than 10 nM in assay [1] (setting [6]); less than 10 nM in assay [1] (setting [7]); 10 to 100 nM in assay [2]; 10 to 100 nM in assay [3]; less than 10 nM in assay [4]; less than 10 nM in assay [5].
